What is called IC50 is the concentration that inhibits the measured activity by half. A word on the inhibition: it is the share of the control response that was lost under treatment.

For assay [1], the target named is T1, Human Synovial PLA2 (Homo sapiens, UniProt P14555).
T1 construct: b) Purified human synovial fluid; from tissue; host or cells: human synovial fluid (purified)
T1 sequence (P14555 21-144): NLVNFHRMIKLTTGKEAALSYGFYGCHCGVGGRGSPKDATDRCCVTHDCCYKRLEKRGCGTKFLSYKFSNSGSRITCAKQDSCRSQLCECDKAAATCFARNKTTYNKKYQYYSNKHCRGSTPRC
Briefly: in vitro isolated phospholipase A2 assay, human synovial fluid PLA2. In kind it is biochemical. Conditions: for inhibition at 10 µM: read-out: % Inhibition at 10 μM HSF. As for the experimental part: (§1) The compounds of the invention are tested in an in vitro isolated phospholipase A2 assay to determine the ability of the test compounds to inhibit the release of arachidonic acid from an arachidonic acid-containing substrate by the action of phospholipase A2 enzyme from human and non-human sources.
(§2) Into a 15 mL polypropylene tube are added the following:
(§3) ^6 Two human PLA2 enzymes are used:
b) Purified human synovial fluid.
(§4) Incubate the 100 μL reaction mixture for 10 minutes at 37° C. in a shaking water bath. The reaction is terminated by the addition of 2 mL tetrahydrofuran, followed by vortexing. NH2 columns (100 μg/mL-Analytichem International) are conditioned with 0.5 mL tetrahydrofuran followed by 0.5 mL tetrahydrofuran/water (2 mL:0.1 mL, v/v).
(§5) The sample is loaded onto the columns and slowly drawn through them. The hydrolyzed arachidonic acid retained in the columns is eluted therefrom with 1 mL tetrahydrofuran/glacial acetic acid (2%). The arachidonic acid is transferred to scintillation vials and quantitated by β-counting analysis. A "total counts" sample is prepared by pipetting 25 μL ^3 H-arachidonate E. coli directly into a scintillation vial to which is added 1 mL tetrahydrofuran. 10 mL aquasol (scintillation cocktail) is added to all samples.

Assay [2] concerns the target T2, Human Platelet PLA2 (Homo sapiens, UniProt P14555).
T2 construct: a) Semipurified human platelet acid extract PLA2 (in 10 mM sodium; from tissue; host or cells: human platelets (acid extract, semipurified)
T2 sequence (P14555 21-144): T1 sequence (P14555 21-144)
Briefly: in vitro isolated phospholipase A2 assay, human platelet PLA2. The note with it: for inhibition at 10 µM: read-out: % Inhibition at 10 μM HP. In kind it is biochemical. How it is done: as §1, §2, §3
a) Semipurified human platelet acid extract PLA2 (in 10 mM sodium
acetate buffer, pH 4.5). Remove protein precipitate by centrifugation at
about 2200 rpm for 10 minutes.
as §4, §5

The subject of assay [3] is LTC4 (lipoxygenase pathway). Description: in vivo murine zymosan peritonitis assay, LTC4. Also on record: species or system mouse (male CD-1). The note with it: for ED50: Mus musculus, po, standard drugs. As for the experimental part: (§6) The compounds of the invention are evaluated for their ability to inhibit the lipoxygenase and/or cyclooxygenase pathways of arachidonic acid metabolism in the in vivo murine zymosan peritonitis assay.
(§7) Male CD-1 mice (8 weeks old) are placed in plastic boxes in groups of six. Animals are injected with 1 mL i.p. of either 1% zymosan in pyrogen free 0.9% saline or saline (unstimulated control). Compounds are dosed orally 1 hour prior to zymosan injection. Twenty minutes after zymosan injection, the mice are asphyxiated by CO2 inhalation and the peritoneal cavity is lavaged with 2 mL ice cold Hanks Balanced Salt Solution (HBSS) without CaCl2, MgSO4 . 7H2 O and MgCl2 . 6H2 O. Peritoneal lavage fluid from each mouse is removed by syringe and placed in 5 mL plastic test tubes put on ice and volume is noted. Preparation of samples for evaluation by ELISA is as follows: Samples are centrifuged at 800 xg for 15 minutes; 1 mL of the supernatant is added to 8 mL ice cold methanol and kept at -70° C. overnight to precipitate protein; and samples are then centrifuged at 800 xg for 15 minutes, followed by a drying procedure in a Savant speed vac concentrator. The samples are reconstituted with 1 mL ice cold ELISA buffer and stored at -70° C. until assayed. The assay for eicosanoids (LTC4 and 6-keto-PGF1α) is performed according to conventional ELISA procedures.
(§8) Compounds to be tested orally are suspended in 0.5% Tween 80. Compounds to be tested intraperitoneally are suspended in 0.5% methylcellulose in 0.9% saline.
(§9) The total metabolite level in lavage fluid/mouse is calculated and the significance is determined by a one-way analysis of variance with LSD comparisons to control (p≤0.05). Drug effects are expressed as a percent change from control values.

In assay [4] the test system is T×B2 synthesis by rat glycogen-elicited polymorphonuclear leukocytes (PMN). Description: inhibition of synthesis of the cyclooxygenase product TxB2 by rat polymorphonuclear leukocytes. In kind it is cell-based. The note with it: Leukocyte. As for the experimental part: The exudate is centrifuged at 400 xg for 10 minutes. The supernatant fluid is discarded and the cell pellet is resuspended to a concentration of 2.0×10^7 cells/mL in HBSS containing Ca^++ and Mg^++ and 10 μM L-cysteine. […] The reaction is terminated by centrifugation and pelleting cells. Supernatants are then analyzed by HPLC analysis on a 15 cm×4.6 mm ID supelcosil LC-18 (Supelco)(3M) column, using a two solvent system at a flow rate of 1.4 mL total flow as follows: […] In this assay, the procedure of Example 14 is carried out as described. […] The results are calculated as in Example 14 and presented below: […]

In assay [5] the test system is 6-keto-PGF1α /TxB2 (cyclooxygenase pathway). Briefly: in vivo murine zymosan peritonitis assay, 6-keto-PGF1α /TxB2. The note with it: for ED50: Mus musculus, po, read-out: ED50 6-keto-PGF1α /TxB2. Also on record: species or system mouse (male CD-1). How it is done:
as §6, §7, §8, §9

The subject of assay [6] is LTB4 synthesis by rat glycogen-elicited polymorphonuclear leukocytes (PMN). Briefly: inhibition of LTB4 synthesis by rat glycogen-elicited polymorphonuclear leukocytes. In kind it is cell-based. Conditions: Leukocyte. As for the experimental part: Roy. Soc. Med., 74, 831 (1981)]. […] Accordingly, the specificity of action of PLA2 inhibitors can be determined by the activity of test compounds in this assay, which measures the ability of compounds to inhibit the synthesis of LTB4 by rat glycogen-elicited polymorphonuclear leukocytes (PMN) in the presence of exogenous substrate. […] The exudate is centrifuged at 400 xg for 10 minutes. The supernatant fluid is discarded and the cell pellet is resuspended to a concentration of 2.0×10^7 cells/mL in HBSS containing Ca^++ and Mg^++ and 10 μM L-cysteine. […] The reaction is terminated by centrifugation and pelleting cells. Supernatants are then analyzed by HPLC analysis on a 15 cm×4.6 mm ID supelcosil LC-18 (Supelco)(3M) column, using a two solvent system at a flow rate of 1.4 mL total flow as follows: Solvent A: 70:30 17.4 mM H3 PO4 :CH3 CN Solvent B. CH3 CN Gradient: (system is equilibrated with Solvent A) Percent solvent changes are accomplished in a linear fashion. […] 10^4 -2.0×10^4 dpm of eicosanoids of interest are injected in 90 μL EtOH cocktail. […] Results are expressed as percent inhibition at a given compound dose or as an IC50 value.

[7] abbreviates: human synovial fluid, read-out: IC50 HSF.

Read-outs that look alike come from different tables or passages of the source.

On to `CCCCC/C=C\C/C=C\C/C=C\C/C=C\CCCC(=O)O` [Arachidonic Acid, reference compound], for which the IC50 in assay [1] worked out at 3200 nM; in assay [2] it was 8600 nM.

Take `NC1=NN(c2cccc(C(F)(F)F)c2)CC1` [BW755C]: the ED50 in assay [3] was < 10 mg/kg.

Regarding `O=C(C#CCCCOc1ccc(Cl)cc1)C(F)(F)F` [Example 1, 7-(4-Chlorophenoxy)-1,1,1-trifluoro-3-heptyn-2-one], in assay [1] (setting [7]), the IC50 is 490 nM. In addition, the inhibition at 10 µM in assay [4] came to 24%; in assay [6], 89.8%. Also, in assay [5] (100 mg/kg p.o.), the “% Inhibition 6-keto-PGF” value is 15%. Further, the inhibition at 50 µM in assay [2] (at 50 μM, human platelet, read-out: % Inhibition HP) amounted to 54%. Further, the “% Inhibition LTC4” value in assay [3] (100 mg/kg p.o.) turned out to be 32%.

In the case of `O=C(C#CCCCn1c2ccccc2c2ccccc21)C(F)(F)F` [Example 2, 7-(9H-Carbazol-9-yl)-1,1,1-trifluoro-3-heptyn-2-one], the IC50 in assay [1] (setting [7]) is 43 nM. Moreover, in assay [2] (human platelet), the inhibition at 10 µM was found to be 7.2%.

As to `O=C(C#CCCCOc1ccc(F)cc1)C(F)(F)F` [Example 3, 1,1,1-Trifluoro-7-(4-fluorophenoxy)-3-heptyn-2-one], the IC50 in assay [1] (setting [7]) came to 8900 nM.

Regarding `CC(C)(C)c1ccc(OCCCC#CC(=O)C(F)(F)F)cc1` [Example 4, 7-[4-(1,1-Dimethylethyl)phenoxy]-1,1,1-trifluoro-3-heptyn-2-one], the IC50 in assay [1] (setting [7]) worked out at 200 nM.

Regarding `COc1ccc(OCCCC#CC(=O)C(F)(F)F)cc1` [Example 5, 1,1,1-Trifluoro-7-(4-methoxyphenoxy)-3-heptyn-2-one], the inhibition at 10 µM in assay [1] (human synovial fluid) was found to be 38.7%.

Regarding `O=C(C#CCCCN1c2cccc3cccc(c23)S1(=O)=O)C(F)(F)F` [Example 6, 1,1,1-Trifluoro-7-(2H-naphth[1,8-cd]isothiazol-2-yl)-3-heptyn-2-one S,S-dioxide], in assay [1] (human synovial fluid), the inhibition at 10 µM amounted to 84.8%.

For `O=C(C#CCCCOc1ccc(Cl)cc1)C(F)(F)CCc1ccccc1` [Example 7, 9-(4-Chlorophenoxy)-3,3-difluoro-1-phenyl-5-nonyn-4-one], in assay [1] (setting [7]), the IC50 came out at 900 nM. Further, the inhibition at 10 µM in assay [4] came to 40%; in assay [6], 72%.

For `O=C(C#CCCCOc1cccc(C(F)(F)F)c1)C(F)(F)F` [Example 8, 1,1,1-Trifluoro-7-[3-(trifluoromethyl)phenoxy]-3-heptyn-2-one], the inhibition at 10 µM in assay [1] (human synovial fluid) is 90.5%.

`CC(C)(C#CC(=O)C(F)(F)F)CCOc1ccc(Cl)cc1` [Example 9, 7-(4-Chlorophenoxy)-5,5-dimethyl-1,1,1-trifluoro-3-heptyne-2-one]: the inhibition at 10 µM in assay [1] (human synovial fluid) turned out to be 19.8%.

As to `O=C(C#CCCCCOc1ccc(Cl)cc1)C(F)(F)F` [Example 10, 8-(4-Chlorophenoxy)-1,1,1-trifluoro-3-octyn-2-one], the inhibition at 10 µM in assay [1] (human synovial fluid) amounted to 94.2%.

As to `O=C(C#CCCCOc1ccc(Cl)c2ccccc12)C(F)(F)F` [Example 11, 7-[(4-Chloro-1-naphthalenyl)oxy]-1,1,1-trifluoro-3-heptyn-2-one], the results for the inhibition at 10 µM in assay [1] (human synovial fluid) and in assay [2] (human platelet) were 94.6% and 26.5%, respectively.

Take `CC(C)(C#CC(=O)C(F)(F)F)Oc1ccc(OC(F)(F)F)cc1` [Example 12, 1,1,1-Trifluoro-5-methyl-5-[4-(trifluoromethoxy)phenoxy]-3-hexyn-2-one]: in assay [1] (human synovial fluid), the inhibition at 10 µM is 58.8%.

Turning to `CC(C)Cc1ccc(C(C)C(=O)O)cc1` (stereo not drawn) [Ibuprofen], the ED50 in assay [5] (standard drugs) turned out to be 7 mg/kg.

Turning to `COc1ccc2c(c1)c(CC(=O)O)c(C)n2C(=O)c1ccc(Cl)cc1` [Indomethacin], in assay [5], the ED50 was 0.126 mg/kg.

On to `CC(=CCCC1=CCC(C2=CC(=O)OC2O)OC1O)CCC1=C(C)CCCC1(C)C` (stereo not drawn) [Monoalide, reference compound], for which the figures for the 50% inhibitory concentration (IC50) in assay [1] and in assay [2] were 140 nM and 25200 nM, respectively.

As to `O=C1CCN(c2ccccc2)N1` [Phenidone], the figures for the ED50 in assay [5] (standard drugs) and in assay [3] were < 30 mg/kg and 24 mg/kg, respectively.
